Common to all, as to assay type: cell-based
Experiment [1] concerns human normal fibroblasts. The experiment is described as follows: Skin cell proliferation (MTT assay). Conditions: 10 ppm, 24 hours; for Cell proliferation effect (%): relative to control group (equation 1); for Absorbance (570 nm): MTT, serum-free DMEM, control group 0.355. On the procedure: In order to examine the effect on skin cell proliferation that reduces wrinkles and enhances skin elasticity, human normal fibroblasts were seeded into a 96-well microplate at a density of 1×10^4 cells/well, and incubated in DMEM (Dulbecco's Modified Eagle's Medium) medium for 24 hours. After incubation, the medium was replaced with serum-free DMEM media containing 10 ppm of each of dehydroabietic acid (Comparative Example 1), compound K (Comparative Example 2), and a mixture of dehydroabietic acid and compound K (weight ratio of 1:7; Example 1), and then the cells were further incubated for 24 hours. Then, 10 μl of 3-(4,5-dimethylthiazol-2-yl)-2,5-diphenyl tetrazolium (MTT, 5 mg/ml) was added to each well, which was then allowed to stand for 4 hours, followed by removal of the medium. Then, 100 μl of dimethyl sulfoxide solution was added to each well, and the absorbance at 570 nm was measured with a microplate reader. Based on the experiment results, the cell proliferation effect was calculated using the following equation 1. [formula]

Experiment [2] deals with human normal fibroblasts. The experiment is described as follows: Promotion of collagen biosynthesis (procollagen type-I C-peptide, PICP, in supernatant). As to conditions: 10 ppm, 48 hours, control group 125. As for the experimental part:
In order to examine the effect on the promotion of collagen biosynthesis that reduces wrinkles and enhances skin elasticity, human normal fibroblasts were seeded into a 96-well microplate at a density of 1×10^4 cells/well, and incubated in DMEM (Dulbecco's Modified Eagle's Medium) medium for 24 hours. After incubation, the medium was replaced with serum-free DMEM media containing 10 ppm of each of dehydroabietic acid (Comparative Example 1), compound K (Comparative Example 2), and a mixture of dehydroabietic acid and compound K (weight ratio of 1:7; Example 1) and then the cells were further incubated for 48 hours. At 24 hours before completion of the incubation, 10 μM ascorbic acid as the positive control was added to each well to promote collagen synthesis. After completion, each well was washed, and the medium was replaced with serum-free DMEM medium, after which the cells were further incubated for 24 hours. After incubation, the supernatant of each well was collected, and the amount of procollagen type-I C-peptide (PICP) in the supernatant was measured using a kit (Takara, Kyoto, Japan) to determine the amount of newly synthesized collagen.

The test system of experiment [3] is human normal fibroblasts. The experiment is described as follows: Inhibition of lipofuscin accumulation in skin cells (lipofuscin fluorescence). As to conditions: for Absorbance (570 nm): 10 ppm, after 10 passages of subculture, excitation 360 nm, emission 570 nm, control group 0.650; for inhibition at 10 ppm: Homo sapiens, Fibroblast, after 10 passages, relative to control group (equation 2), read-out: Lipofusin accumulation inhibition rate (%). On the procedure:
In order to examine the effect on the inhibition of lipofuscin accumulation that prevents aging, human normal fibroblasts were seeded into a 96-well microplate at a density of 1×10^4 cells/well, and incubated in DMEM (Dulbecco's Modified Eagle's Medium) medium for 24 hours. After incubation, the medium was replaced with serum-free DMEM media containing 10 ppm of each of dehydroabietic acid (Comparative Example 1), compound K (Comparative Example 2), and a mixture of dehydroabietic acid and compound K (weight ratio of 1:7; Example 1). Then, the cells were subcultured in a fresh medium every 48 hours. After 10 passages of subculture, the fluorescence of the self-luminescent protein lipofuscin in the cells was measured using a microplate reader with the excitation wavelength of 360 nm and the emission wavelength of 570 nm. Based on the experiment results, the effect on inhibition of lipofuscin accumulation was calculated using the following equation 2. [formula]

As for `CC(C)=CCC[C@](C)(O[C@@H]1O[C@H](CO)[C@@H](O)[C@H](O)[C@H]1O)[C@H]1CC[C@]2(C)[C@@H]1[C@H](O)C[C@@H]1[C@@]3(C)CC[C@H](O)C(C)(C)[C@@H]3CC[C@]12C` [Comparative Example 2, compound K], in the experiment on human normal fibroblasts [1], the “Cell proliferation effect (%)” value stood at 46.5% and the “Absorbance (570 nm)” value worked out at 0.520. The “Amount of collagen synthesized” value in the experiment with human normal fibroblasts [2] was found to be 162 ng/2 × 10^4. Besides, in the experiment with human normal fibroblasts [3], the “Absorbance (570 nm)” value came to 0.448 and the inhibition at 10 ppm amounted to 31.1%.
As to `CC(C)c1ccc2c(c1)CC[C@H]1[C@](C)(C(=O)O)CCC[C@]21C` [Comparative Example 1, dehydroabietic acid], in the experiment on human normal fibroblasts [1], the “Cell proliferation effect (%)” value is reported as 53.8% and the “Absorbance (570 nm)” value was 0.546. In the experiment on human normal fibroblasts [2], the “Amount of collagen synthesized” value is recorded as 174 ng/2 × 10^4. Further, in the experiment on human normal fibroblasts [3], the “Absorbance (570 nm)” value came out at 0.465 and the inhibition at 10 ppm is 28.5%.
Take `O=C1O[C@H]([C@@H](O)CO)C(O)=C1O` [Ascorbic acid, ascorbic acid]: the “Amount of collagen synthesized” value with human normal fibroblasts [2] amounted to 186 ng/2 × 10^4.

For the origin of these results see patent US20190192413A1, “SKIN ANTI-AGING COMPOSITION CONTAINING DEHYDROGENATED ABIETIC ACID AND COMPOUND K” (AMOREPACIFIC CORPORATION, priority 2016, published 2019).
